Where a name gives a salt, the structure may show the parent alone. Read-outs that look alike come from different tables or passages of the source.
Tested on: recombinant NL-Rluc virus (NL4-3 with Renilla Luciferase gene) in MT-2 cells
Test: Inhibition of HIV replication (NL-Rluc luciferase reporter virus, MT-2 cells)
Type: cell-based, human immunodeficiency virus (HIV)
Settings: NL43, 120 h

Row | Compound | EC50 (read-out: Activity) | EC50 (read-out: EC50 μM)
1 | Cc1nc2c(-c3ccccc3)cnn2c(-c2ccc3c(c2)CCCO3)c1C(OC(C)(C)C)C(=O)O (stereo not drawn) [Example 45, 2-tert-Butoxy-2-(7-(chroman-6-yl)-5-methyl-3-phenylpyrazolo[1,5-a]pyrimidin-6-yl)acetic acid, TFA salt] | 0.1 to 1 µM | 0.24 µM
2 | Cc1ccc(-c2cc3nc(C)c(C(OC(C)(C)C)C(=O)O)c(-c4cc(F)c5c(c4C)CCCO5)n3n2)cc1 (stereo not drawn) [Example 46, 2-tert-Butoxy-2-(7-(8-fluoro-5-methylchroman-6-yl)-5-methyl-2-p-tolylpyrazolo[1,5-a]pyrimidin-6-yl)acetic acid, TFA salt] | < 0.1 µM | 0.09 µM
3 | Cc1ccc(-c2cc3nc(C)c(C(OC(C)(C)C)C(=O)O)c(-c4ccc5c(c4)CCCO5)n3n2)cc1 (stereo not drawn) [Example 47] | < 0.1 µM | 0.08 µM
4 | Cc1nc2cc(-c3ccccc3)nn2c(-c2cc3ccccc3n2C)c1C(OC(C)(C)C)C(=O)O (stereo not drawn) [Example 48] | > 1 µM | 
5 | CCC(C)c1ccc(-c2c(C(OC(C)(C)C)C(=O)O)c(C)nc3cc(-c4ccccc4)nn23)cc1 (stereo not drawn) [Example 49] | > 1 µM | 
6 | Cc1nc2cc(-c3ccccc3)nn2c(-c2ccc3ncccc3c2)c1C(OC(C)(C)C)C(=O)O (stereo not drawn) [Example 50] | > 1 µM | 2.4 µM
7 | Cc1nc2cc(-c3ccccc3)nn2c(-c2ccc3cc[nH]c3c2)c1C(OC(C)(C)C)C(=O)O (stereo not drawn) [Example 51] | > 1 µM | 
8 | COc1ccc(-c2c(C(OC(C)(C)C)C(=O)O)c(C)nc3cc(-c4ccccc4)nn23)c(Cl)c1 (stereo not drawn) [Example 52] | > 1 µM | 
9 | Cc1ccc(-c2c(C(OC(C)(C)C)C(=O)O)c(C)nc3cc(-c4ccccc4)nn23)c(Cl)c1 (stereo not drawn) [Example 53] | 0.1 to 1 µM | 
10 | Cc1ccc(-c2c(C(OC(C)(C)C)C(=O)O)c(C)nc3cc(-c4ccccc4)nn23)c(F)c1 (stereo not drawn) [Example 54] | 0.1 to 1 µM | 
11 | Cc1nc2cc(-c3ccccc3)nn2c(-c2ccccc2Cl)c1C(OC(C)(C)C)C(=O)O (stereo not drawn) [Example 55] | > 1 µM | 
12 | CCc1ccc(-c2c(C(OC(C)(C)C)C(=O)O)c(C)nc3cc(-c4ccccc4)nn23)cc1 (stereo not drawn) [Example 56] | > 1 µM | 
13 | Cc1nc2cc(-c3ccccc3)nn2c(-c2ccc(C(C)C)cc2)c1C(OC(C)(C)C)C(=O)O (stereo not drawn) [Example 57] | > 1 µM | 1.7 µM
14 | CSc1ccc(-c2c(C(OC(C)(C)C)C(=O)O)c(C)nc3cc(-c4ccccc4)nn23)cc1 (stereo not drawn) [Example 58] | > 1 µM | 3.1 µM
15 | Cc1cc(-c2c(C(OC(C)(C)C)C(=O)O)c(C)nc3cc(-c4ccccc4)nn23)ccc1F (stereo not drawn) [Example 59] | > 1 µM | 
16 | Cc1cc(F)ccc1-c1c(C(OC(C)(C)C)C(=O)O)c(C)nc2cc(-c3ccccc3)nn12 (stereo not drawn) [Example 60] | > 1 µM | 
17 | Cc1ccc(-c2c(C(OC(C)(C)C)C(=O)O)c(C)nc3cc(-c4ccccc4)nn23)cc1F (stereo not drawn) [Example 61] | > 1 µM | 
18 | Cc1ccc(F)c(-c2c(C(OC(C)(C)C)C(=O)O)c(C)nc3cc(-c4ccccc4)nn23)c1 (stereo not drawn) [Example 62] | > 1 µM | 5 µM
19 | COc1ccc(-c2c(C(OC(C)(C)C)C(=O)O)c(C)nc3cc(-c4ccccc4)nn23)c(F)c1 (stereo not drawn) [Example 63] | > 1 µM | 
20 | Cc1nc2cc(-c3ccccc3)nn2c(-c2cc3ccccc3o2)c1C(OC(C)(C)C)C(=O)O (stereo not drawn) [Example 64] | > 1 µM | 
21 | Cc1nc2cc(-c3ccccc3)nn2c(-c2ccc3c4c(cccc24)CC3)c1C(OC(C)(C)C)C(=O)O (stereo not drawn) [Example 65] | > 1 µM | 
22 | Cc1nc2cc(-c3ccccc3)nn2c(-c2ccc(C(C)(C)C)cc2)c1C(OC(C)(C)C)C(=O)O (stereo not drawn) [Example 66] | > 1 µM | 
23 | Cc1nc2cc(-c3ccccc3)nn2c(-c2cc3ccccc3s2)c1C(OC(C)(C)C)C(=O)O (stereo not drawn) [Example 67] | > 1 µM | 
24 | Cc1nc2cc(-c3ccccc3)nn2c(-c2csc3ccccc23)c1C(OC(C)(C)C)C(=O)O (stereo not drawn) [Example 68] | > 1 µM | 
25 | Cc1nc2cc(-c3ccccc3)nn2c(-c2cccc3cccnc23)c1C(OC(C)(C)C)C(=O)O (stereo not drawn) [Example 69] | > 1 µM | 
26 | Cc1nc2cc(-c3ccccc3)nn2c(-c2ccc3[nH]ccc3c2)c1C(OC(C)(C)C)C(=O)O (stereo not drawn) [Example 70] | > 1 µM | 
